Measured values: ChEMBL document CHEMBL1201862, “PubChem BioAssay data set” (2004)
The source made the active and inactive calls.

Experiments:
[1] = target: Neurotensin receptor type 1 (Homo sapiens, UniProt P30989); format: functional;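 note: Image-based confirmatory dose-response assay measuring agonist activity at NTR1; NTR1-expressing U2OS osteosarcoma cells imaged for beta-arrestin GFP spot formation; agonist potency where compounds increase beta-arrestin recruitment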
[2] = target: 1-acylglycerol-3-phosphate O-acyltransferase ABHD5/Perilipin-5 (Homo sapiens, UniProt Q00G26+Q8WTS1); assay: Luminescence-based biochemical high throughput dose response assay for inhibitors of the interaction of the lipase co-activator protein, abhydrolase domain containing 5 (ABHD5) with perilipin-5 (MLDP; PLIN5) (2K validation set). [Related pubchem assays (depositor defined):AID493035, AID493241]
[3] = inhibitors of SNCA 5'UTR-driven reporter translation, confirmation, H4 neuroglioma cells, luminescence (AID 1988); format: functional, cell-based
X-box-binding protein 1 = X-box-binding protein 1 (Homo sapiens, UniProt P17861); format: functional, Cricetulus griseus;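 note: confirmatory dose-response counter-screen serving a CHOP assay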
[4] = Luminescence Cell-Based Dose Response HTS to Identify Inhibitors of 5'UTR Stem-Loop Driven Prion Protein mRNA Translation in H4 Neuroglioblastoma Cells. [Related pubchem assays: 1827 (Project Summary), 1813 (Primary HTS)]; format: functional
[5] = Luminescence Cell-Based Dose Retest to Confirm Inhibitors of Cancer Stem Cells. [Related pubchem assays (depositor defined):AID2717, AID2721]; format: functional; conditions: Homo sapiens
Perilipin-1/ABHD5 = Perilipin-1/ABHD5 (Homo sapiens, UniProt O60240+Q8WTS1); assay: Luminescence-based biochemical high throughput dose response assay for inhibitors of the interaction of the lipase co-activator protein, abhydrolase domain containing 5 (ABHD5) with perilipin-1 (PLIN1) (2K validation set). [Related pubchem assays (depositor defined):AID493027, AID493057]
[6] = target: G-protein coupled receptor 55 (Homo sapiens, UniProt Q9Y2T6); assay: SAR Analysis of Selective Antagonists of GPR55 using an Image-Based Assay - Set 3. [Related pubchem assays (depositor defined):AID2058, AID2079]; format: functional
[7] = target: G-protein coupled receptor 35 (Homo sapiens, UniProt Q9HC97); assay: SAR analysis of Antagonists of the GPR35 Receptor using an Image-Based Assay - Set 5. [Related pubchem assays (depositor defined):AID2058, AID2079]; format: functional
Hexokinase = Hexokinase (Trypanosoma brucei, UniProt Q38C41); assay: Confirmation assay for inhibitors of Trypanosoma brucei hexokinase 1-Analogue-first series. [Related pubchem assays (depositor defined):AID1430, AID1632, AID2516, AID2560, AID2579, AID2600, AID449725, AID492951]; format: functional
Saccharomyces cerevisiae = assay: NALP1 inhibitor project selectivity study, Caspase-1/ASC signal blockade IC50 in S. cerevisiae (AID 488863); format: functional, organism-based
BJ [8] = assay: cells; format: functional, cell-based; conditions: Homo sapiens
[9] = cytotoxicity toward DRD oncogenic fibroblasts, dose response, cell-based, non-viral oncogenic, luminescence (AID 1934); format: functional; conditions: Homo sapiens
BJ [10] = assay: cytotoxicity toward BJ-TERT fibroblasts, dose response, cell-based, RAS-independent, luminescence (AID 1933); format: functional; conditions: Homo sapiens
[11] = target: NACHT, LRR and PYD domains-containing protein 1 (Homo sapiens, UniProt Q9C000); assay: NALP1 inhibitors in yeast, dose response, luminescent (AID 488860); format: functional
BJ [12] = assay: cytotoxicity toward BJ-TERT-LT-ST fibroblasts, dose response, cell-based, RAS-independent, luminescence (AID 1935); format: functional; conditions: Homo sapiens;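 note: BJ fibroblasts immortalized with TERT plus LT and ST oncogenes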
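Throughout, for AC50: cells exposed to compound for roughly 70 hours or longer before luminescence read.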

Sequence of Neurotensin receptor type 1 (P30989 whole entry, the tested form may be a part): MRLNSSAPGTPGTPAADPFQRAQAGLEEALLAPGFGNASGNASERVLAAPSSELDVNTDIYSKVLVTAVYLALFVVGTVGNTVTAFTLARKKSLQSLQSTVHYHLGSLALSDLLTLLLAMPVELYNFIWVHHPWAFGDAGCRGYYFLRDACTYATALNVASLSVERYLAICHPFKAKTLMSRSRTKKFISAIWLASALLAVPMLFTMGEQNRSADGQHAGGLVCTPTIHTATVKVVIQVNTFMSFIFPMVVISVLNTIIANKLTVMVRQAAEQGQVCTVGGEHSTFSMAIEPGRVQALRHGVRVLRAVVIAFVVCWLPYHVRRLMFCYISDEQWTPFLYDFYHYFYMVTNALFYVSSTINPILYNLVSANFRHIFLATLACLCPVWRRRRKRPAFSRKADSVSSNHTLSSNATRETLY
Sequence of 1-acylglycerol-3-phosphate O-acyltransferase ABHD5/Perilipin-5 (Q00G26 whole entry, the tested form may be a part): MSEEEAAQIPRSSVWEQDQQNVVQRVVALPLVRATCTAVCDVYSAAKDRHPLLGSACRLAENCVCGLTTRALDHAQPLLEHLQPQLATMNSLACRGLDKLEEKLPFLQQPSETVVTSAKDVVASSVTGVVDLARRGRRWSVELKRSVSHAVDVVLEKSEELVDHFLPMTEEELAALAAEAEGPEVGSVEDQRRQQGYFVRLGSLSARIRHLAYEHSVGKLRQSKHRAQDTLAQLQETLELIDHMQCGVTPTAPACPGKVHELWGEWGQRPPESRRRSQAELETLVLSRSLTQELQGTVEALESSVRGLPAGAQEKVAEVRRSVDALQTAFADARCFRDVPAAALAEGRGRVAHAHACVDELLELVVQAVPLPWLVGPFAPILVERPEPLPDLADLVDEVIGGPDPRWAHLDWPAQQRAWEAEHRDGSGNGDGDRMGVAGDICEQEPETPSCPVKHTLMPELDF
Sequence of 1-acylglycerol-3-phosphate O-acyltransferase ABHD5/Perilipin-5 (Q8WTS1 whole entry, the tested form may be a part): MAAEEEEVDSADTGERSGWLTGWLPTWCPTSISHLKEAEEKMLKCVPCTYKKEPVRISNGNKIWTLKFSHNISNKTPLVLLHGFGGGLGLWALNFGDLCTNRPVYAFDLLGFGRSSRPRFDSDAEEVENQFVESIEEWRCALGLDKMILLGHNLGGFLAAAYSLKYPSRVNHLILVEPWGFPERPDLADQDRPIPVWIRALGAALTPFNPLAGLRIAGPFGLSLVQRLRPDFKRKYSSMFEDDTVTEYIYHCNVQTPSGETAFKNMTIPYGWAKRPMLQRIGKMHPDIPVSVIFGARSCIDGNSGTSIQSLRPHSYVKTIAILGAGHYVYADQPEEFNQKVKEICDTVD
Sequence of Hexokinase (Q38C41 whole entry): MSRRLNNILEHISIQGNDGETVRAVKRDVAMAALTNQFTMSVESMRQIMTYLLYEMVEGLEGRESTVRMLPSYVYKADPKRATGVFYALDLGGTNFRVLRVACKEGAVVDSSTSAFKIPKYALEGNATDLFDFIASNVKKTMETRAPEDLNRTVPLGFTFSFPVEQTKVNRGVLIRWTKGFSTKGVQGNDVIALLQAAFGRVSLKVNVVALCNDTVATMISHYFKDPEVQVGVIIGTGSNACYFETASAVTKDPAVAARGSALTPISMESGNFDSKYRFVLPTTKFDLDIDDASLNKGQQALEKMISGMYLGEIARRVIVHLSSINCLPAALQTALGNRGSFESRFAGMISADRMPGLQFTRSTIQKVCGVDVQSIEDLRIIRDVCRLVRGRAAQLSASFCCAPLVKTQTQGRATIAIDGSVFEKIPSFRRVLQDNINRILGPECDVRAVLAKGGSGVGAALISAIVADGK
Sequence of G-protein coupled receptor 35 (Q9HC97 whole entry): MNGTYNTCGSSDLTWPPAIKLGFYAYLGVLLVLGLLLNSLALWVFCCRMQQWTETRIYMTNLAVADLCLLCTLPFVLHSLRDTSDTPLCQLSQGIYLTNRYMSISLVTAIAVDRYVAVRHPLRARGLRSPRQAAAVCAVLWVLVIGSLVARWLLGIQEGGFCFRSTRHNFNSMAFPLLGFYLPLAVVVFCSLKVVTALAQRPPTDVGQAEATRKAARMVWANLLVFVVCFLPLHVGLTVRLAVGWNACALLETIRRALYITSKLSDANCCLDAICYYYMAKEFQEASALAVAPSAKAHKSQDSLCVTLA
Sequence of NACHT, LRR and PYD domains-containing protein 1 (Q9C000 1-1212 limits assumed): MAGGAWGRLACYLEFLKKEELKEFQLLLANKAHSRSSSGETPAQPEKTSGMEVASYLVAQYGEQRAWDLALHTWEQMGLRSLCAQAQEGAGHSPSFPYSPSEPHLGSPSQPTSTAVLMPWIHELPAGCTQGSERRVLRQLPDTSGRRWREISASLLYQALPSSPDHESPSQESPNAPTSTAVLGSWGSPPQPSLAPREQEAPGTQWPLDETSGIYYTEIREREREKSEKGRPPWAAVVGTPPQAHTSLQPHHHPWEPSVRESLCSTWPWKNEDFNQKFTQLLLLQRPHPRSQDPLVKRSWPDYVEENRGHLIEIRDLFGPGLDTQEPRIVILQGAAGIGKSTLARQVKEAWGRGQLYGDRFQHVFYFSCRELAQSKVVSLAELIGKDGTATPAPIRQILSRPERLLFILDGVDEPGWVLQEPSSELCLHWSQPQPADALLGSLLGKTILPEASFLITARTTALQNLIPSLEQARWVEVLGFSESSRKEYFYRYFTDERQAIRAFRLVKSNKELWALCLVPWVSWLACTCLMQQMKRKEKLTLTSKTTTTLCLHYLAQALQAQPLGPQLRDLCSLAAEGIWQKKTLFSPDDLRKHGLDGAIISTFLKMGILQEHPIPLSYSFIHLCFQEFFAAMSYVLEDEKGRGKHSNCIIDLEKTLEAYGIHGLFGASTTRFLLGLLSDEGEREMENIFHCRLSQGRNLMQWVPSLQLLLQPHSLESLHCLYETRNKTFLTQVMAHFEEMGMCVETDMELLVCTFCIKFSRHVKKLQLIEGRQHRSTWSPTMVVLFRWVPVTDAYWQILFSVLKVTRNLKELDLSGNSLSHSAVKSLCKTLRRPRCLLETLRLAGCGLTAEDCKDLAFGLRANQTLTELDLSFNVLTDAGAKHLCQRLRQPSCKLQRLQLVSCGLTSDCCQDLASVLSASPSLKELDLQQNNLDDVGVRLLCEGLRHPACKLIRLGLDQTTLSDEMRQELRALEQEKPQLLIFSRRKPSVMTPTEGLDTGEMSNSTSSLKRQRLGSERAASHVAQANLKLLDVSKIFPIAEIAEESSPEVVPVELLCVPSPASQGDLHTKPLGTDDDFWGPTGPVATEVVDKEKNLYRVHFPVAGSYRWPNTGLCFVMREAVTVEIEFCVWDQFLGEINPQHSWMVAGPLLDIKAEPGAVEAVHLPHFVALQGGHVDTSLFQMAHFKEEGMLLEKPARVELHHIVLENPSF
Sequence of NACHT, LRR and PYD domains-containing protein 1 (Q9C000 1213-1473 limits assumed): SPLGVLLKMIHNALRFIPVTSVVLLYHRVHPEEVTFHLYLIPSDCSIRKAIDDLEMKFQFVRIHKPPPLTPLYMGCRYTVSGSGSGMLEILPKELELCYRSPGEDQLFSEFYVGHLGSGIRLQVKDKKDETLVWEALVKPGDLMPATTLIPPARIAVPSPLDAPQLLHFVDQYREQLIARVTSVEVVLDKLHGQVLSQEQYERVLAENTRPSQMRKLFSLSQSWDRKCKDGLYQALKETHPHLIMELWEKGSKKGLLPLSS
Sequence of Perilipin-1/ABHD5 (Q8WTS1 whole entry, the tested form may be a part): as the sequence (Q8WTS1 whole entry, the tested form may be a part) above
Sequence of Perilipin-1/ABHD5 (O60240 whole entry, the tested form may be a part): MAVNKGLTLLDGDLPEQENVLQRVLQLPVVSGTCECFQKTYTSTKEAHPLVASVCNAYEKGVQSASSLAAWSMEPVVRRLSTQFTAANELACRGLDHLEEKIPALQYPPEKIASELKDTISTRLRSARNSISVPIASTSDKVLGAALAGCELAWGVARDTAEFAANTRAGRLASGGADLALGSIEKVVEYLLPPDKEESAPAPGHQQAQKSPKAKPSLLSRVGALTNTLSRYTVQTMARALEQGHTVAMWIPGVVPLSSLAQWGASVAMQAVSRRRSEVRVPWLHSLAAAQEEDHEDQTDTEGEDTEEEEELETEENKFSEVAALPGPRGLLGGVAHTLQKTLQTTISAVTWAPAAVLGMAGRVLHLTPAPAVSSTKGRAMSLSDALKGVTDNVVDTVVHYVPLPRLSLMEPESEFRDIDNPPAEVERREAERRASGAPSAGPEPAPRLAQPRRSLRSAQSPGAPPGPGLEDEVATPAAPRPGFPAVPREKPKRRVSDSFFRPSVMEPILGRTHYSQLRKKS
Sequence of X-box-binding protein 1 (P17861 whole entry): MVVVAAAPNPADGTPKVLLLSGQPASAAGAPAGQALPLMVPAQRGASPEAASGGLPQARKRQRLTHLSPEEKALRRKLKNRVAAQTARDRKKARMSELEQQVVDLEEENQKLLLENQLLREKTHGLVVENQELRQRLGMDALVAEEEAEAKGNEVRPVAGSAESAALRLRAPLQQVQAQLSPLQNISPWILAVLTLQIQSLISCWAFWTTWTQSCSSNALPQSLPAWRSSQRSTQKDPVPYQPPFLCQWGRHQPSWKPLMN
Sequence of G-protein coupled receptor 55 (Q9Y2T6 whole entry): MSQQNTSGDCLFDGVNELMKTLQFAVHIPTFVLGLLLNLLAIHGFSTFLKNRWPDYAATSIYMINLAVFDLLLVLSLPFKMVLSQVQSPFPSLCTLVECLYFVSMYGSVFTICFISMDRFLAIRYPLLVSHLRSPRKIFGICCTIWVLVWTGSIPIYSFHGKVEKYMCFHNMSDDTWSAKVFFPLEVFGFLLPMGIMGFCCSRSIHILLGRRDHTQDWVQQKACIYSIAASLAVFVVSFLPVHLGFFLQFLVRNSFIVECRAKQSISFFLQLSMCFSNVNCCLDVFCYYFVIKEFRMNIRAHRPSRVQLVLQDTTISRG

O=C(Nc1ccc(Oc2c(F)c(F)c(F)c(F)c2F)cc1)OC1CCN2Cc3ccccc3N=C12 (stereo unspecified)
EC50 [1]: 19 µM (active) | IC50 [2]: 9.84 µM (active) | EC50 [3]: 8.72 µM (active) | Absolute IC50 (XBP1) (X-box-binding protein 1): 10 µM | EC50 [4]: 12 µM (active) | AC50 [5]: 0.888 µM (active) | IC50 (Perilipin-1/ABHD5): 8.78 µM (active)

COC(=O)c1cnn(-c2ccccc2)c1/C=N/NC(=S)Nc1ccccc1
IC50 [6]: 15.1 µM (inactive) | IC50 [7]: 1.01 µM (active)

O=C(O)c1ccc(Cl)cc1NC(=O)N1CCOCC1
IC50 (Hexokinase): > 25 µM (inactive)

CCN1/C(=C/C=C/C=C/c2sc3ccccc3[n+]2CC)Sc2ccccc21 [DITHIAZANINE IODIDE]
IC50 (Saccharomyces cerevisiae): > 100 µM (inactive) | EC50 (BJ [8]): 2.04 µM (inconclusive) | EC50 [9]: 1.68 µM (inconclusive) | EC50 (BJ [10]): 1.7 µM (inconclusive) | IC50 [11]: 19.5 µM (active) | EC50 (BJ [12]): 3 µM (inconclusive)
